Like-named read-outs stand apart in the source and are kept apart here.
Target: T1, truncated Itk (Homo sapiens, UniProt Q08881)
T1 construct: fused on or other part: added start methionine
T1 sequence (Q08881 171-615 limits assumed): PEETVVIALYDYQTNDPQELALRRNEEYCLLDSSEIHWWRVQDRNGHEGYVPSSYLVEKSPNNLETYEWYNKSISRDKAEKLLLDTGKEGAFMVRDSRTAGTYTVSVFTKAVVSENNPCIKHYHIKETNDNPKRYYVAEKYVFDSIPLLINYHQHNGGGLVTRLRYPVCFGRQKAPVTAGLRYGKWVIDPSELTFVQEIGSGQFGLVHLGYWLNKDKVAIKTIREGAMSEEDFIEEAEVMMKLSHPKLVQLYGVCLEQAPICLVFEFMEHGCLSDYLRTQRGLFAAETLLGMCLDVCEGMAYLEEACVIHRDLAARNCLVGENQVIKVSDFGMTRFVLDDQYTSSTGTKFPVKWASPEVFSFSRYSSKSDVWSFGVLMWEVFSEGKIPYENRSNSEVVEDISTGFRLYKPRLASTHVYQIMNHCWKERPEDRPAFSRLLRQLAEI
Assay: Truncated Itk kinase assay (HTRF)
Assay type: biochemical
Conditions: UK:ITK, 0.05 mM ATP, 15 min pre-incubation
Protocol: The 100 000 g supernatant was stored at −85° C. Stored lysates were thawed on ice, ATP and MgCl2 (0.1 mM and 10 mM) were added. Following incubation on ice the kinase was diluted in 40 mM HEPES (pH 7.4). The kinase reaction mixture contained 40 mM HEPES (pH 7.4). 10 mM MgCl2, 0.05 mM ATP, 0.0005 mM peptide (Biotin-[…]). The reaction was stopped by the addition of EDTA (25 mM). […] An increase in the level of fluorescence indicates an increase in kinase activity.
Compound Testing in Kinase Assay
Substrates (ATP, src-peptide) added
Reaction stopped with EDTA
HTRF reagents (APC, Eu labelled antibody (antiPY antibody)) added
Read signal on plate reader

[1] = PIC50 is -log10 IC50 in molar, read-out: Average PIC50 (converted)

SMILES: CNc1ccc(-c2cc(=O)c3c(O)cc(O)cc3o2)cc1
- IC50 (read-out: Average IC50): 813 nM
- IC50 [1]: 813 nM

SMILES: O=c1c(O)c(-c2cc(O)c(O)c(O)c2)oc2cc(O)cc(O)c12
- IC50 (read-out: Average IC50): 1660 nM
- IC50 [1]: 1660 nM
